Measurements as given in US9994547B2, “Heteroarylamide inhibitors of TBK1” (Takeda Pharmaceutical Company Limited, priority 2014, dated 2018).

Biological target: Full length human TBK1 (Homo sapiens (Human), UniProt Q9UHD2)
Test: Inhibition of TBK1 Enzyme (Example A)
Type: biochemical
Conditions: -log(IC50), IC50 molar; 3 nM TBK1, 25 μM ATP, 60 min RT
Experimental: Full length human TBK1 with an N-terminal His-tag was cloned into the pFastBacl vector and was transfected into Sf9 cells. 72 hours later the virus was harvested and amplified through two additional rounds of infections. Then 400 mL of the resulting virus stock was used to infect 10 L of Sf9 cells at a density of 2×10^6 cells/mL. Cell pellets were harvested 48 hours post infection and were lysed by freeze-thaw, homogenization and sonication in binding buffer (25 mM Tris pH7.6, 1 M NaCl, 10 mM imidazole, 0.5 mM TCEP) plus 0.1% Triton X-100 and complete protease inhibitor cocktail. The lysate was spun and the supernatant was purified with a HisTrap FF crude and a Superdex 200 pg column.
TBK1 inhibition is determined using a 384 well plate format in buffer containing 20 mM Hepes, pH 7.4, 10 mM MgCl2, 1 mM EDTA, 0.01% Brij-L23, 1 mM DTT. Each test compound is prepared in DMSO using 2.5-fold serial dilutions for 11 data points, which are added to the buffer so that each dilution contains 1% DMSO. To each well is added 2 μL of 1 μM 5FAM-DRHDSGLDSMKDE-NH2 (in buffer), 2 μL of diluted test compound (1% DMSO in buffer), and 5 μL of 3 nM TBK1 and 25 μM ATP (in buffer). The reaction mixture is incubated at RT for 60 min, and quenched by adding 20 mM Hepes, pH 7.4, 10 mM MgCl2, 1 mM EDTA, 0.01% Brij-L23, 1 mM DTT+25 mM EDTA. To quantify the fluorescent-labeled substrate and product following reaction, the test plate is loaded on a Caliper LC-3000, which measures percent of conversion by microfluidic-based separation. Corresponding IC50 values are calculated by non-linear curve fitting of the compound concentrations and percent of inhibition to the standard IC50 equation and reported as pIC50, i.e., −log(IC50), where IC50 is the molar concentration.

Chain of Full length human TBK1 (Q9UHD2 whole entry): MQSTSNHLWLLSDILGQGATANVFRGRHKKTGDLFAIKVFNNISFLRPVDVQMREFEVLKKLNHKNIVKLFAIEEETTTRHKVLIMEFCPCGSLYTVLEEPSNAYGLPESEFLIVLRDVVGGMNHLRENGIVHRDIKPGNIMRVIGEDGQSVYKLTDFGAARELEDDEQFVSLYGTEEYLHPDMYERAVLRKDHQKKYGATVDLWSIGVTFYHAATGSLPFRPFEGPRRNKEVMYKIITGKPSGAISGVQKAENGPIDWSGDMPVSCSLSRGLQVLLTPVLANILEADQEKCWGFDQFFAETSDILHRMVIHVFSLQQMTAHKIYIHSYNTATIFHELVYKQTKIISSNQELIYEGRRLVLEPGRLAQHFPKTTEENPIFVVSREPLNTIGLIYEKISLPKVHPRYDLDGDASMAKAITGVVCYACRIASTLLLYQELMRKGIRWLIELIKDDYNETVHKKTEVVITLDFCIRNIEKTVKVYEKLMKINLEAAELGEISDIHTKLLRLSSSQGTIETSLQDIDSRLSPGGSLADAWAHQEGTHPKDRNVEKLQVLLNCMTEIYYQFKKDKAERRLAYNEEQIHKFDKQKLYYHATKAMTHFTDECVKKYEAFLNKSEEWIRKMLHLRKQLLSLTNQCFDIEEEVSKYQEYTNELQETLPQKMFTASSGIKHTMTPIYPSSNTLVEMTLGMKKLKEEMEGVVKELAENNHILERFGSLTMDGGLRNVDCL

Compound | TBK1 Inhibition (pIC50)
C[C@@H](Nc1cc(-c2cnc(NC(=O)C3CC3)cn2)ccc1C#N)C(=O)N(C)C [Example 2, (R)-N-(5-(4-cyano-3-((1-(dimethylamino)-1-oxopropan-2-yl)amino)phenyl)pyrazin-2-yl)cyclopropanecarboxamide] | 7.1
CC(Nc1cc(-c2cnc(NC(=O)C3CC3)cn2)ccc1C#N)C(=O)N(C)C (stereo not drawn) [Example 3, N-(5-(4-cyano-3-((1-(dimethylamino)-1-oxopropan-2-yl)amino)phenyl)pyrazin-2-yl)cyclopropanecarboxamide] | 7.9
CCC(Nc1cc(-c2cnc(NC(=O)C3CC3)cn2)ccc1C#N)C(=O)N(C)C (stereo not drawn) [Example 6, N-(5-(4-cyano-3-((1-(dimethylamino)-1-oxobutan-2-yl)amino)phenyl)pyrazin-2-yl)cyclopropanecarboxamide] | 8.1
COCC[C@H](Nc1cc(-c2cnc(NC(=O)C3CC3)cn2)ccc1C#N)C(=O)N(C)C [Example 7, (S)-N-(5-(4-cyano-3-((1-(dimethylamino)-4-methoxy-1-oxobutan-2-yl)amino)phenyl)pyrazin-2-yl)cyclopropanecarboxamide] | 8.2
CN(C)C(=O)C(CC(F)F)Nc1cc(-c2cnc(NC(=O)C3CC3)cn2)ccc1C#N (stereo not drawn) [Example 8, N-(5-(4-cyano-3-((1-(dimethylamino)-4,4-difluoro-1-oxobutan-2-yl)amino)phenyl)pyrazin-2-yl)cyclopropanecarboxamide] | 8.1
C[C@H](Nc1cc(-c2cnc(NC(=O)C3CC3)cn2)ccc1C#N)C(=O)N1CCCC1 [Example 10, (S)-N-(5-(4-cyano-3-((1-oxo-1-(pyrrolidin-1-yl)propan-2-yl)amino)phenyl)pyrazin-2-yl)cyclopropanecarboxamide] | 7.3
C[C@H](Nc1cc(-c2cnc(NC(=O)C3CC3)cn2)ccc1C#N)C(=O)NCCO [Example 13, (S)-N-(5-(4-cyano-3-((1-((2-hydroxyethyl)amino)-1-oxopropan-2-yl)amino)phenyl)pyrazin-2-yl)cyclopropanecarboxamide] | 6.3
COC1CN(C(=O)[C@H](C)Nc2cc(-c3cnc(NC(=O)C4CC4)cn3)ccc2C#N)C1 [Example 16, (S)-N-(5-(4-cyano-3-((1-(3-methoxyazetidin-1-yl)-1-oxopropan-2-yl)amino)phenyl)pyrazin-2-yl)cyclopropanecarboxamide] | 6.3
COCCN(C)C(=O)[C@H](C)Nc1cc(-c2cnc(NC(=O)C3CC3)cn2)ccc1C#N [Example 17, (S)-N-(5-(4-cyano-3-((1-((2-methoxyethyl)(methyl)amino)-1-oxopropan-2-yl)amino)phenyl)pyrazin-2-yl)cyclopropanecarboxamide] | 7.1
CN(C)C(=O)C(CO)Nc1cc(-c2cnc(NC(=O)C3CC3)cn2)ccc1C#N (stereo not drawn) [Example 18, N-(5-(4-cyano-3-((1-(dimethylamino)-3-hydroxy-1-oxopropan-2-yl)amino)phenyl)pyrazin-2-yl)cyclopropanecarboxamide] | 7.5
C[C@H](Nc1cc(-c2cnc(NC(=O)C3CC3)cn2)ccc1C#N)C(=O)N(C)CCO [Example 19, (S)-N-(5-(4-cyano-3-((1-((2-hydroxyethyl)(methyl)amino)-1-oxopropan-2-yl)amino)phenyl)pyrazin-2-yl)cyclopropanecarboxamide] | 7.7
N#Cc1ccc(-c2cnc(NC(=O)C3CC3)cn2)cc1NCC(=O)N1CCC1 [Example 21, N-(5-(3-((2-(azetidin-1-yl)-2-oxoethyl)amino)-4-cyanophenyl)pyrazin-2-yl)cyclopropanecarboxamide] | 6.6
COC1CN(C(=O)CNc2cc(-c3cnc(NC(=O)C4CC4)cn3)ccc2C#N)C1 [Example 22, N-(5-(4-cyano-3-((2-(3-methoxyazetidin-1-yl)-2-oxoethyl)amino)phenyl)pyrazin-2-yl)cyclopropanecarboxamide] | 6.0
CC[C@H](Nc1cc(-c2cnc(NC(=O)C3CC3)cn2)ccc1C#N)C(=O)N(C)C [Example 23, (S)-N-(5-(4-cyano-3-((1-(dimethylamino)-1-oxobutan-2-yl)amino)phenyl)pyrazin-2-yl)cyclopropanecarboxamide] | 7.7
N#Cc1ccc(-c2cnc(NC(=O)C3CC3)cn2)cc1NCC(=O)N1CC(F)(F)C1 [Example 24, N-(5-(4-cyano-3-((2-(3,3-difluoroazetidin-1-yl)-2-oxoethyl)amino)phenyl)pyrazin-2-yl)cyclopropanecarboxamide] | 6.8
CN(C(=O)CNc1cc(-c2cnc(NC(=O)C3CC3)cn2)ccc1C#N)C1CC1 [Example 25, N-(5-(4-cyano-3-((2-(cyclopropyl(methyl)amino)-2-oxoethyl)amino)phenyl)pyrazin-2-yl)cyclopropanecarboxamide] | 7.4

Second part, the compound after the results:

TBK1 Inhibition (pIC50) | Compound
7.1 | CC1CC1C(=O)Nc1cnc(-c2ccc(C#N)c(NCC(=O)N(C)C)c2)cn1 (stereo not drawn) [Example 4, N-(5-(4-cyano-3-((2-(dimethylamino)-2-oxoethyl)amino)phenyl)pyrazin-2-yl)-2-methylcyclopropanecarboxamide]
7.3 | CC(C)C(Nc1cc(-c2cnc(NC(=O)C3CC3)cn2)ccc1C#N)C(=O)N(C)C (stereo not drawn) [Example 5, N-(5-(4-cyano-3-((1-(dimethylamino)-3-methyl-1-oxobutan-2-yl)amino)phenyl)pyrazin-2-yl)cyclopropanecarboxamide]
6.7 | C[C@H](Nc1cc(-c2cnc(NC(=O)C3CC3)cn2)ccc1C#N)C(=O)N1CCC1 [Example 9, (S)-N-(5-(3-((1-(azetidin-1-yl)-1-oxopropan-2-yl)amino)-4-cyanophenyl)pyrazin-2-yl)cyclopropanecarboxamide]
6.7 | C[C@H](Nc1cc(-c2cnc(NC(=O)C3CC3)cn2)ccc1C#N)C(=O)N1CC(O)C1 [Example 11, (S)-N-(5-(4-cyano-3-((1-(3-hydroxyazetidin-1-yl)-1-oxopropan-2-yl)amino)phenyl)pyrazin-2-yl)cyclopropanecarboxamide]
8.0 | CCN(C)C(=O)[C@H](C)Nc1cc(-c2cnc(NC(=O)C3CC3)cn2)ccc1C#N [Example 12, (S)-N-(5-(4-cyano-3-((1-(ethyl(methyl)amino)-1-oxopropan-2-yl)amino)phenyl)pyrazin-2-yl)cyclopropanecarboxamide]
6.9 | CC(C)NC(=O)[C@H](C)Nc1cc(-c2cnc(NC(=O)C3CC3)cn2)ccc1C#N [Example 14, (S)-N-(5-(4-cyano-3-((1-(isopropylamino)-1-oxopropan-2-yl)amino)phenyl)pyrazin-2-yl)cyclopropanecarboxamide]
5.8 | COCCNC(=O)[C@H](C)Nc1cc(-c2cnc(NC(=O)C3CC3)cn2)ccc1C#N [Example 15, (S)-N-(5-(4-cyano-3-((1-((2-methoxyethyl)amino)-1-oxopropan-2-yl)amino)phenyl)pyrazin-2-yl)cyclopropanecarboxamide]
7.4 | CCN(C)C(=O)CNc1cc(-c2cnc(NC(=O)C3CC3)cn2)ccc1C#N [Example 20, N-(5-(4-cyano-3-((2-(ethyl(methyl)amino)-2-oxoethyl)amino)phenyl)pyrazin-2-yl)cyclopropanecarboxamide]
